Values of other authors, collected in patent publication US20250312405A1, “FOOD SUPPLEMENT COMPRISING NEOHESPERIDIN DIHYROCHALCONE AND PEPPERMINT OIL” (priority 2022, published 2025).

Columns and labels:
Campylobacter jejuni [1] = details: dose of 0.2 mM
Campylobacter jejuni [2] = details: doses of 0.25 mM
[3] = tested on: HT-29 cells co-cultured with immune cells; details: doses of 50 μmoles

Row | SMILES | cell invasion (Campylobacter jejuni [1]) | effect on the motility of Campylobacter jejuni (Campylobacter jejuni [2]) | immune-induced epithelial disfunction by Campylobacter jejuni [3]
1 | Cc1ccc(C(C)C)cc1O [carvacrol] | reduced cell invasion | had an effect on the motility | 
2 | COc1cc(/C=C/C(=O)CC(=O)/C=C/c2ccc(O)c(OC)c2)ccc1O [curcumin] |  |  | mitigates the immune-induced epithelial disfunction
